Converted amounts (≈) assume the structure as drawn. Where two headings read alike, the source gives them in different places.
Columns and labels:
[1] = system: E. coli AR-0349; assay: MICs of a panel of 9 antibiotics with and without compound 3; format: cell-based; settings: for INT (S-R interpretation): CLSI 2021, M100, Ed 31; for MIC: antibiotic alone, multidrug-resistant E. coli; for MIC (+3): in the presence of 1 μg/mL of compound 3
[2] = system: E. coli AR-0493; assay: Minimum re-sensitizing concentration (MRC) in the presence of colistin; format: cell-based; settings: in the presence of 2 μg/mL colistin, E. coli AR-0493
Procedure: These 10 compounds were tested for their MICs and minimum re-sensitizing concentrations (MRCs) in the presence colistin at 2 μg/mL in E. coli AR-0493.
The present inventors further conducted MRC screens of selected compounds from groups 2-5 in AR-0493. Compound were tested against AR-0493 with compound X+2 μg/mL Colistin.
All compounds were tested for their respective minimum resensitizing concentrations (MRCs) for colistin against E. coli. AR0493, a MDR strain from CDC and FDA Antibiotic Resistance Bank. […] For the symmetrical bisanilino series, 7a-p, electron-donating alkyl and alkoxy groups (entries 7a-g, Table 5) at various positions of the phenyl rings were investigated. […] Three asymmetric bisanilino analogs (7q-s, Table 5) were synthesized based on the SARs of the monoanilino analogs 8a-p (vide infra).
(§1) General Methods. MDR strains E. coli AR-0493, AR-0346, and AR-0538, Salmonella Enteritidis AR-0496, Salmonella Typhimurium AR-0635, K. pneumoniae AR-0497, A. baumannii AR-0300 and AR-0310 were all obtained from the CDC & FDA Antibiotic Resistance Isolate Bank. E. coli K-12 was a gift from the Copley lab (Department of MCD Biology, University of Colorado Boulder). HeLa cells were purchased from the ATCC. All bacterial strains were grown on trypticase soy agar supplemented with 5% sheep blood (BAP). Bacteria were then cultured in Luria-Bertani (LB) medium at 35° C. until they achieve the log phase before screening or antimicrobial testing using CAMHB media. MIC, MRC, and checkerboard analyses and mammalian growth inhibition analyses in Hela cells were performed as described previously. More details are given in Supporting information.

[3] = system: E. coli AR-0493; assay: MIC, CLSI broth microdilution, substance alone; format: cell-based
Procedure: A MDR E. coli strain AR-0493 (a.k.a., ATCC BAA-3170) was obtained from the CDC and FDA Antibiotic Resistance Bank and used for the initial screen. […] Considering the difficulties on the discovery of novel antimicrobial reagents against Gram-negative bacteria, we chose to screen the fragment-based library of 3,200 compounds from TimTec (Tampa, FL). […] The screen used a modified broth microdilution assay.
These 10 compounds were tested for their MICs and minimum re-sensitizing concentrations (MRCs) in the presence colistin at 2 μg/mL in E. coli AR-0493. […] To evaluate their toxicity in mammalian cells, the present inventors treated human epithelial adenocarcinoma HeLa cells with each compound at a wide range of concentrations. […]
as §1

[4] = system: HeLa cells; assay: in vitro; format: cell-based, human
Procedure: These 10 compounds were tested for their MICs and minimum re-sensitizing concentrations (MRCs) in the presence colistin at 2 μg/mL in E. coli AR-0493. […] To evaluate their toxicity in mammalian cells, the present inventors treated human epithelial adenocarcinoma HeLa cells with each compound at a wide range of concentrations.
To evaluate the mammalian toxicity of these analogs, Applicants tested them in cell viability assay using human cervical adenocarcinoma HeLa cells. Their respective half maximal growth inhibition concentration (GI50) was calculated using KaleidaGraph. The selectivity index (SI) for each compound was also calculated as the ratio of their GI50 and MRC. […] Therefore, Applicants selected two bisanilino analogs, 7l and 7m, that bear chlorines at the meta- and para-positions, respectively, of the phenyl groups for further characterization studies. […]. […] Their mammalian toxicities were also evaluated, and SIs calculated. […] Applicants we next explored the scope of analogs 71 and 7m their colistin-potentiating activity in 8 different MDR Gram negative bacteria with diverse genetic backgrounds and resistance mechanisms (Table 7). All strains were obtained from CDC and FDA Antibiotic Resistance Bank. For example, E. coli AR-0493 and K. pneumoniae AR-0497 carry the plasmid that contains the most prevalent mcr-1 gene. E. coli AR-0538, Salmonella Typhimurium AR-0539 and AR-0635 contain the mcr-2, 3, and 4 genes, respectively. These genes encode the phosphoethanolamine transferase, which was originated form the chromosome of A. baumannii, such as AR-0310. […]. A. baumannii AR-0310 appears more sensitive to these two compounds and the MICs of colistin was reduced to 0.25 μg/mL.
as §1

[5] = Escherichia coli, AR0349, read-out: MIC

Molecule: CC[C@H]1OC(=O)[C@H](C)[C@@H](O[C@H]2C[C@@](C)(OC)[C@@H](O)[C@H](C)O2)[C@H](C)[C@@H](O[C@@H]2O[C@H](C)C[C@H](N(C)C)[C@H]2O)[C@](C)(O)C[C@@H](C)CN(C)[C@H](C)[C@@H](O)[C@]1(C)O [Azithromycin]
- INT (S-R interpretation) [1]: R
- MIC [1, 5]: > 64 mg/L
- MIC (+3) [1]: >64 mg/L

Molecule: CC(C)(O/N=C(\C(=O)N[C@@H]1C(=O)N2C(C(=O)[O-])=C(C[n+]3ccccc3)CS[C@H]12)c1csc(N)n1)C(=O)O [Ceftazidime]
- INT (S-R interpretation) [1]: R
- MIC [1, 5]: > 64 mg/L
- MIC (+3) [1]: >64 mg/L

Molecule: O=C(O)c1cn(C2CC2)c2cc(N3CCNCC3)c(F)cc2c1=O [Ciprofloxacin]
- MIC [1, 5]: 32 mg/L (≈ 96.6 µM)
- MIC (+3) [1]: 32 mg/L

Molecule: Cc1cccc(Nc2nc3nonc3nc2O)c1 [Compound 4]
- MRC (minimum re-sensitizing concentration) [2]: did not show either antimicrobial or RMA activity
- MIC [3]: did not show either antimicrobial or RMA activity

Molecule: c1ccc(Nc2nc3nonc3nc2Nc2ccccc2)cc1 [Compound 7a]
- MRC (minimum re-sensitizing concentration) [2]: 0.5 µg/mL
- GI50 [4]: 4.4 mg/L
- MIC [3]: >64 mg/L

Molecule: Cc1ccccc1Nc1nc2nonc2nc1Nc1ccccc1C [Compound 7b]
- MRC (minimum re-sensitizing concentration) [2]: 8 µg/mL

Molecule: Cc1cccc(Nc2nc3nonc3nc2Nc2cccc(C)c2)c1 [Compound 7c]
- MRC (minimum re-sensitizing concentration) [2]: 0.5 µg/mL
- GI50 [4]: 1.5 mg/L
- MIC [3]: >64 mg/L

Molecule: Cc1ccc(Nc2nc3nonc3nc2Nc2ccc(C)cc2)cc1 [Compound 7d]
- MRC (minimum re-sensitizing concentration) [2]: 0.5 µg/mL
- GI50 [4]: 1.1 mg/L
- MIC [3]: >64 mg/L

Molecule: COc1ccccc1Nc1nc2nonc2nc1Nc1ccccc1OC [Compound 7e]
- MRC (minimum re-sensitizing concentration) [2]: >64 µg/mL

Molecule: COc1cccc(Nc2nc3nonc3nc2Nc2cccc(OC)c2)c1 [Compound 7f]
- MRC (minimum re-sensitizing concentration) [2]: 2 µg/mL

Molecule: COc1ccc(Nc2nc3nonc3nc2Nc2ccc(OC)cc2)cc1 [Compound 7g]
- MRC (minimum re-sensitizing concentration) [2]: >64 µg/mL

Molecule: Fc1cccc(Nc2nc3nonc3nc2Nc2cccc(F)c2)c1 [Compound 7i]
- MRC (minimum re-sensitizing concentration) [2]: 0.5 µg/mL
- GI50 [4]: 20 mg/L
- MIC [3]: >64 mg/L

Molecule: Fc1ccc(Nc2nc3nonc3nc2Nc2ccc(F)cc2)cc1 [Compound 7j]
- MRC (minimum re-sensitizing concentration) [2]: 0.5 µg/mL
- GI50 [4]: 9.4 mg/L
- MIC [3]: >64 mg/L

Molecule: Clc1ccccc1Nc1nc2nonc2nc1Nc1ccccc1Cl [Compound 7k]
- MRC (minimum re-sensitizing concentration) [2]: 8 µg/mL

Molecule: FC(F)(F)Oc1ccccc1Nc1nc2nonc2nc1Nc1ccccc1OC(F)(F)F [Compound 7n]
- MRC (minimum re-sensitizing concentration) [2]: >64 µg/mL

Molecule: FC(F)(F)Oc1cccc(Nc2nc3nonc3nc2Nc2cccc(OC(F)(F)F)c2)c1 [Compound 7o]
- MRC (minimum re-sensitizing concentration) [2]: 0.25 µg/mL
- MRC (minimum re-sensitizing concentration) ([2]; listed as 57o): 0.25 µg/mL
- GI50 [4]: 43 mg/L
- MIC [3]: >64 mg/L

Molecule: FC(F)(F)Oc1cccc(Nc2nc3nonc3nc2Nc2ccccc2)c1 [Compound 7q]
- MRC (minimum re-sensitizing concentration) [2]: 1 µg/mL

Molecule: COc1ccccc1Nc1nc2nonc2nc1Nc1cccc(OC(F)(F)F)c1 [Compound 7s]
- MRC (minimum re-sensitizing concentration) [2]: >64 µg/mL

Molecule: Oc1nc2nonc2nc1Nc1ccccc1 [Compound 8a]
- MRC (minimum re-sensitizing concentration) [2]: >64 µg/mL

Molecule: Cc1ccccc1Nc1nc2nonc2nc1O [Compound 8b]
- MRC (minimum re-sensitizing concentration) [2]: 64 µg/mL

Molecule: Cc1cccc(Nc2nc3nonc3nc2O)c1 [Compound 8c]
- MRC (minimum re-sensitizing concentration) ([2]; listed as 8c (2)): 8 µg/mL

Molecule: Cc1ccc(Nc2nc3nonc3nc2O)cc1 [Compound 8d]
- MRC (minimum re-sensitizing concentration) [2]: 64 µg/mL

Molecule: COc1ccccc1Nc1nc2nonc2nc1O [Compound 8e]
- MRC (minimum re-sensitizing concentration) [2]: 4 µg/mL
- MIC [3]: >64 mg/L

Molecule: COc1cccc(Nc2nc3nonc3nc2O)c1 [Compound 8f]
- MRC (minimum re-sensitizing concentration) [2]: 16 µg/mL

Molecule: COc1ccc(Nc2nc3nonc3nc2O)cc1 [Compound 8g]
- MRC (minimum re-sensitizing concentration) [2]: >64 µg/mL

Molecule: Oc1nc2nonc2nc1Nc1ccccc1F [Compound 8h]
- MRC (minimum re-sensitizing concentration) [2]: 64 µg/mL

Molecule: Oc1nc2nonc2nc1Nc1cccc(F)c1 [Compound 8i]
- MRC (minimum re-sensitizing concentration) [2]: 64 µg/mL

Molecule: Oc1nc2nonc2nc1Nc1ccc(F)cc1 [Compound 8j]
- MRC (minimum re-sensitizing concentration) [2]: 32 µg/mL

Molecule: Oc1nc2nonc2nc1Nc1ccccc1Cl [Compound 8k]
- MRC (minimum re-sensitizing concentration) [2]: 16 µg/mL

Molecule: Oc1nc2nonc2nc1Nc1cccc(Cl)c1 [Compound 8l]
- MRC (minimum re-sensitizing concentration) [2]: 16 µg/mL

Molecule: Oc1nc2nonc2nc1Nc1ccc(Cl)cc1 [Compound 8m]
- MRC (minimum re-sensitizing concentration) [2]: 32 µg/mL

Molecule: Oc1nc2nonc2nc1Nc1ccccc1OC(F)(F)F [Compound 8n]
- MRC (minimum re-sensitizing concentration) [2]: >64 µg/mL

Molecule: C[C@@H](O)[C@H]1C(=O)N2C(C(=O)O)=C(S[C@@H]3CN[C@H](C(=O)N(C)C)C3)[C@H](C)[C@H]12 [Meropenem]
- INT (S-R interpretation) [1]: S
- MIC [1, 5]: 0.25 mg/L (≈ 0.652 µM)
- MIC (+3) [1]: 0.25 mg/L

Molecule: CO[C@H]1/C=C/O[C@@]2(C)Oc3c(C)c(O)c4c(O)c(c(/C=N/N5CCN(C)CC5)c(O)c4c3C2=O)NC(=O)/C(C)=C\C=C\[C@H](C)[C@H](O)[C@@H](C)[C@@H](O)[C@@H](C)[C@H](OC(C)=O)[C@@H]1C [Rifampicin]
- INT (S-R interpretation) [1]: R
- MIC [1, 5]: 16 mg/L (≈ 19.4 µM)
- MIC (+3) [1]: 16 mg/L

Molecule: Cc1cccc(Nc2nc3nonc3nc2Cl)c1 [ST024336, reference compound]
- MRC (minimum re-sensitizing concentration) [2]: 2 µg/mL
- MRC (minimum re-sensitizing concentration) ([2]; listed as 1): > 64 µg/mL
- GI50 ([4]; HeLa cells, 24 hours): 10 mg/L

Molecule: CN(C)[C@@H]1C(O)=C(C(N)=O)C(=O)[C@@]2(O)C(O)=C3C(=O)c4c(O)cccc4[C@@](C)(O)[C@H]3C[C@@H]12 [Tetracycline]
- INT (S-R interpretation) [1]: R
- MIC [1, 5]: > 64 mg/L
- MIC (+3) [1]: >64 mg/L

Molecule: Gentamicin
- INT (S-R interpretation) [1]: S
- MIC [1]: 0.5 mg/L
- MIC (+3) [1]: 0.5 mg/L

Molecule: Polymyxin B
- INT (S-R interpretation) [1]: R
- MIC [1]: 16 mg/L
- fold of potentiation ([1]; by 1 μg/mL of compound 3): 16 fold
- MIC (+3) [1]: 1 mg/L
